The target in one assay is T1, CBP/P300 (Homo sapiens, UniProt Q92793).
T1 construct: endogenous in cells; host or cells: HEK293T (CRISPR/Cas9 HiBiT knock-in at the CBP locus)
In words: CBP/P300 degradation, Nano-Glo HiBiT lytic assay. The class given is cell-based. To be noted: HEK293T HiBiT-CBP cells, 6 h incubation; for Emax: HEK-293T. The source says:
Assay media was DMEM no-phenol red medium and fetal bovine serum (FBS) were purchased from Gibco (Grand Island, N.Y., USA). Nano-Glo®, 1HiBiT Lydc Assay Systeni was purchased from Promega (Madison, Wis. USA). Stable HEK293T cell line with endogenously tagged HiBiT-CBP was generated in house by CRISPR/Cas9 gene editing introducing the HiBiT fusion tag at the N-terminus using homologous directed repair. Cell culture flasks and 384-well microplates were acquired from VWR (Radnor, Pa., USA).
CBP degradation was determined based on quantification of luminescent signal using Nano-Glo® HiBiT Lytic Assay kit. Test compounds were added to the 384-well plate from a top […] with 11 points, half log titration in duplicates, Cells were added into 384-well Corning 3570 plates, (Corning, Tewksbury, MA, USA) at a cell density of 10,000 cells per well in assay media. The plates were incubated at 37° C. with 5% CO2 for 6 hours. The cells treated in the absence of the test compound were the negative control and media was the positive control. After 6-hour incubation, Nano-Glo® HiBiT Lytic Assay reagents were added to the cells, Luminescence was acquired on EnVision™ Multilabel Reader (PerkinElmer, Santa Clara, Calif., USA).
(In general: With HiBiT, luminescence reflects the tagged protein that the partner subunit can reach.)

The target in the next assay is CRBN-DDB1 (Homo sapiens, UniProt Q96SW2). Briefly: CRBN FP binding assay (fluorescence polarization). The conditions noted are these: 150 nM CRBN-DDB1, 5 nM Alexa-647 probe, read-out: FP CRBN_DDB1.3 ka. As for the experimental part:
The determination of the binding constant (KD) of test compounds to CRBN-DDB1 was carried out using an established sensitive and quantitative in vitro fluorescence polarization (FP) binding assay. Control compounds were run on the same plate. Compounds were dispensed from serially diluted DMSO stock supplied by Frontier Scientific Services Inc in low dead volume plates into black 384-well compatible FP plates using acoustic technology to 1% of total reaction volume. Compounds were arranged vertically in rows A through P. Concentrations series are horizontal: columns 1-11, and then duplicates in columns 12-22. Columns 23 and 24 are reserved for 0% (5 nM probe) and 100% controls (protein at high concentration with 5 nM probe), respectively. […] Matching control plates excluding CRBN-DDB1 were used to correct for background fluorescence. Plates were read on an Envision plate reader with appropriate FP filter sets.

In a further assay the target is cellular cereblon (CRBN) (Homo sapiens, UniProt Q96SW2). In words: NanoBRET CRBN assay, displacement of pomalidomide-NanoBRET tracer in 293T cells. (BRET reads energy transfer from a luciferase to a nearby fluorophore.)
Chain of cellular cereblon (CRBN) (Q96SW2 whole entry, species assumed): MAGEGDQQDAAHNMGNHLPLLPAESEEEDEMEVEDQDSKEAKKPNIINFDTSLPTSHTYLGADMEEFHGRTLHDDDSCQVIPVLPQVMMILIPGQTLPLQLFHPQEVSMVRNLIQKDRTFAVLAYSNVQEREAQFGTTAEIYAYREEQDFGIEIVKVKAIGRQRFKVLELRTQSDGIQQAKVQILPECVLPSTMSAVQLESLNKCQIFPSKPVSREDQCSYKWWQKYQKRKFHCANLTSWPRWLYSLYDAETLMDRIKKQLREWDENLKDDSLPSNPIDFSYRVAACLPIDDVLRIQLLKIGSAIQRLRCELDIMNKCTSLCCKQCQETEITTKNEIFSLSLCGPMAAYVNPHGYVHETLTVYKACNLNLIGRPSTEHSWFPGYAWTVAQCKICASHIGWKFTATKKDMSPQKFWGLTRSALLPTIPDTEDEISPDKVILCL
The next assay relates to ERK1/2. In words: ERK1/2 degradation, Total ERK HTRF assay in Colo205 cells. The class given is cell-based. To be noted: 6 h, read-out: ERK1/2 6 h DC50 (Emax %). As for the experimental part: Colo205 CCL-222 cells were purchased from ATCC. RPMI 1640 no-phenol red medium and fetal bovine serum (FBS) were purchased from Gibco (Grand Island, NY, USA). Cell culture flasks and 384-well microplates were acquired from VWR (Radnor, PA, USA). Total ERK HTRF assay kits were purchased from Cisbio (64NRKPEH, Bedford, MA, USA).
Degradation of ERK1/2 was determined based on quantification of FRET signal using a Total ERK1/2 HTRF assay kit. Test compounds were added to the 384-well plate from a top concentration of 10 μM with 10 points, half-log titration in duplicates. COL0205 cells were added into 384-well plates at a cell density of 5,000 cells per well. The plates were kept at 37° C. with 5% CO2 for 6 hours. Cells treated in the absence of the test compound were the negative control. Positive control was set by wells containing all reagents but no cells. HTRF regents were added according to manufacturer's instructions with the additional step of lysate denaturation at 95° C. for 10 minutes and cooling to room temperature before antibody addition. Following addition of the antibodies the samples were incubated overnight. FRET signal was acquired on an EnVision™ Multilabel Reader (PerkinElmer, Santa Clara, CA, USA).
On the technique in general: Time-resolved FRET reads energy transfer from a long-lived donor to a nearby acceptor.

In another assay the target is NSP3 UBL2_PLpro-HA-HiBiT (Severe acute respiratory syndrome coronavirus 2, UniProt P0DTC1). In words: NSP3 UBL2_PLpro-HA-HiBiT degradation assay (cellular) in 293T cells. To be noted: 6.0 hours; for DC50: read-out: HiBiT-Degradation 293T.234 NSP3_PLpro 6.0 hours (DC50); for Emax: HEK-293T, Emax = residual protein remaining after treatment, read-out: HiBiT-Degradation 293T.234 NSP3_PLpro 6.0 hours (Emax %). The class given is cell-based, Severe acute respiratory syndrome Coronavirus 2 (Sars-CoV-2).

The mark [1] stands for this setting: 1.5 h room temperature, numeric bounds.
Setting [2] is: 1.5 h room temperature, class symbols.

pIC50, pKd: −log10 of the molar value. Where two headings read alike, the source gives them in different places.

Chain of CRBN-DDB1 (Q96SW2 whole entry): as the sequence (Q96SW2 whole entry, species assumed) above
Chain of CRBN-DDB1 (Q16531 whole entry partner): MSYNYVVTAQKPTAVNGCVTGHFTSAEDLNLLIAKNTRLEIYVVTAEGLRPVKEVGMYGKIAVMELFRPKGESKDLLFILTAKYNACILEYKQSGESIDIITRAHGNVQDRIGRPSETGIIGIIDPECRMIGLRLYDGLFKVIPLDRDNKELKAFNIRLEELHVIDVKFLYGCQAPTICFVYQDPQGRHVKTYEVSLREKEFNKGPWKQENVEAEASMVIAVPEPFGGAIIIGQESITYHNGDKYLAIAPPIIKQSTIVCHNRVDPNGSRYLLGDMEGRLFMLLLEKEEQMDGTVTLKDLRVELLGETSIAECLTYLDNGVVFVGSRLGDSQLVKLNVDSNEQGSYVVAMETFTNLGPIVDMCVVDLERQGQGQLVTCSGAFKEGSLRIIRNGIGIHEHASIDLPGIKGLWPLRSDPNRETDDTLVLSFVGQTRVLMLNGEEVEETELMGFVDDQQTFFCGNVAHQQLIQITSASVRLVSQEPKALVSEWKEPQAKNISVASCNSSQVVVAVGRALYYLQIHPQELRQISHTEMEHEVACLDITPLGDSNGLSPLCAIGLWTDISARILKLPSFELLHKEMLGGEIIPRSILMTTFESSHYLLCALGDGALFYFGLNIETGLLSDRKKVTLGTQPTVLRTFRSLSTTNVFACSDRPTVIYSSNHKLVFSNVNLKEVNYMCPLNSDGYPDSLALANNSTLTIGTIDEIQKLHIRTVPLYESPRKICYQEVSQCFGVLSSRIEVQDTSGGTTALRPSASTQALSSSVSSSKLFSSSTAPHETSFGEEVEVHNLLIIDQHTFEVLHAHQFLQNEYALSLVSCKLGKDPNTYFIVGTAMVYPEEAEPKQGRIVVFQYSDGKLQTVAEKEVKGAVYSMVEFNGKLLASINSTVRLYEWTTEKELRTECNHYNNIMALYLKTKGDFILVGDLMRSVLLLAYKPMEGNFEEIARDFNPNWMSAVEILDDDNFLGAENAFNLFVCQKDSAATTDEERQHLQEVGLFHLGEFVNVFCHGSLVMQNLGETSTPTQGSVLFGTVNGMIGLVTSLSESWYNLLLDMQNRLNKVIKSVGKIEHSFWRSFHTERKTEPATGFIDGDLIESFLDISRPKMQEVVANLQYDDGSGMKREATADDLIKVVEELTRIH
T1 sequence (Q92793 whole entry): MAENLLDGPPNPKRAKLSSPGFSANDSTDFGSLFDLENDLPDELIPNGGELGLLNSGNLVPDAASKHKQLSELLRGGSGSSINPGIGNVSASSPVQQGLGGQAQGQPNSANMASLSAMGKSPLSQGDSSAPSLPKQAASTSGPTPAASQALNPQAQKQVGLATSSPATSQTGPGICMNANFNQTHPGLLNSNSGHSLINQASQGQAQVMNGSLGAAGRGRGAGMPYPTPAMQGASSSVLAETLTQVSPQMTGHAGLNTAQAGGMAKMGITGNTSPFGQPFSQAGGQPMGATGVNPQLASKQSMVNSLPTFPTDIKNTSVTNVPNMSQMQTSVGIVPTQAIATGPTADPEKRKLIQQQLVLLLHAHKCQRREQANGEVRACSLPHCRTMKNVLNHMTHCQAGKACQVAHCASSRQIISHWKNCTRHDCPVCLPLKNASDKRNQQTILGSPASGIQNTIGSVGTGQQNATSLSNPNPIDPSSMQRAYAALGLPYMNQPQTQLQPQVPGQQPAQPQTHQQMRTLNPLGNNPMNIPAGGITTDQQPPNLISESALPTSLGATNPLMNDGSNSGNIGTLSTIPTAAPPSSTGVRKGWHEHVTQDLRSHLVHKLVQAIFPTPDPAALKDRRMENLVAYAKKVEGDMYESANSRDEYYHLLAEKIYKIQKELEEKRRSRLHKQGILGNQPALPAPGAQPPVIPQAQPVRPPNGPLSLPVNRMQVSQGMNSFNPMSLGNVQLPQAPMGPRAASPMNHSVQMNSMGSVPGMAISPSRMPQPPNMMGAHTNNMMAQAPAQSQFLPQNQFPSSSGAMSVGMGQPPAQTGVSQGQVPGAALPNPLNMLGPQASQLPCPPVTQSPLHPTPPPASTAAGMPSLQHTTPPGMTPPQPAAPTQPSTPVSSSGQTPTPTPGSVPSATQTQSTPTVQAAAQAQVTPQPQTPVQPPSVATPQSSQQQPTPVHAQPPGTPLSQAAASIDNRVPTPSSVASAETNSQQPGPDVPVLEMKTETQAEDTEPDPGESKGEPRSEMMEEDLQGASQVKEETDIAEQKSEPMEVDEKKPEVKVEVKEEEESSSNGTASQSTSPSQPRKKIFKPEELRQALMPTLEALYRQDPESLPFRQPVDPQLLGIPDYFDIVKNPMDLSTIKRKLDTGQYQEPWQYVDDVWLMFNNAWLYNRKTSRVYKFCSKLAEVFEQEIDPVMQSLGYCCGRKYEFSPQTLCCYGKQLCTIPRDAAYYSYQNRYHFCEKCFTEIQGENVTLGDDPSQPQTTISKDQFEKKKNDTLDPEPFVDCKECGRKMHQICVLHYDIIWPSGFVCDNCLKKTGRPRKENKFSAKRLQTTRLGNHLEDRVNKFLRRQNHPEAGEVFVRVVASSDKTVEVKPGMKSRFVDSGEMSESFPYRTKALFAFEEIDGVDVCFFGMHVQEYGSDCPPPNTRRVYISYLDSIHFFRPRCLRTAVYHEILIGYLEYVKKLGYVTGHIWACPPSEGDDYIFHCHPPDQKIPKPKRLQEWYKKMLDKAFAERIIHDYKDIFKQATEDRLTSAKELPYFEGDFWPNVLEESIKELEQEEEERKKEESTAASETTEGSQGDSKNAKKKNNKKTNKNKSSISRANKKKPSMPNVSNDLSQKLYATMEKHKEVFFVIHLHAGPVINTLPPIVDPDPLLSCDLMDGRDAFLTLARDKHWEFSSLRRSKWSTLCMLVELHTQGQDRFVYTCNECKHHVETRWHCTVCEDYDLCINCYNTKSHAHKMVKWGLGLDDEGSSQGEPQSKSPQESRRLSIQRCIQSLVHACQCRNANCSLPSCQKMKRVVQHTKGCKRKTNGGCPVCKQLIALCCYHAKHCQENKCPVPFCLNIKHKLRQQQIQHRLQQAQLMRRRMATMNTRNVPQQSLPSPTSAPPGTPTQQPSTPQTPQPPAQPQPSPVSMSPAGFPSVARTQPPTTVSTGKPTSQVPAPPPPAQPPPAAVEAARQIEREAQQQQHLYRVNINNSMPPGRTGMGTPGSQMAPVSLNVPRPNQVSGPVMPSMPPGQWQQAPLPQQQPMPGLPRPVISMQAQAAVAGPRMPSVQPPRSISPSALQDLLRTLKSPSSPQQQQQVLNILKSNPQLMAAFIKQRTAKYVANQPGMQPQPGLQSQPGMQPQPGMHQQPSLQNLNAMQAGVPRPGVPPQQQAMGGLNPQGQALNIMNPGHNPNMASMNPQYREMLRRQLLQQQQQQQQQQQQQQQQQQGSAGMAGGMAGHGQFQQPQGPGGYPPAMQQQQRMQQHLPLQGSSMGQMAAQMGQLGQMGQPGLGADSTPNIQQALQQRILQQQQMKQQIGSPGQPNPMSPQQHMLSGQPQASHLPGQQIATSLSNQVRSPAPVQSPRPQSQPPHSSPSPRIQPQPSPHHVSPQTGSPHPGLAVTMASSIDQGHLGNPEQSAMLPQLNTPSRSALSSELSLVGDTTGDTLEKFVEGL

At CBP/P300, `CNC(=O)N1CCc2c(c(N3CCCc4cc(-c5cnn(C)c5)c(C(F)F)cc43)nn2C2CCN(C(=O)CCCCCCCCN3CCC(Nc4ccc5c6c(cccc46)C(=O)N5C4CCC(=O)NC4=O)CC3)CC2)C1` (stereo not drawn) yielded a DC50 of under 10 nM and an Emax of under 30%. Also, the pKd at CRBN-DDB1 (setting [1]) was over 8.00.

In the case of `COC(=O)c1ccc2c3c(cccc13)C(=O)N2C1CCC(=O)NC1=O` (stereo not drawn), the pKd on CRBN-DDB1 (setting [2]) is 6.00 to 7.00. The pIC50 at cellular cereblon (CRBN) is over 7.00.

In the case of `Nc1ccc2c3c(cccc13)C(=O)N2C1CCC(=O)NC1=O` (stereo not drawn), at CRBN-DDB1 (setting [2]), the pKd was 6.00 to 7.00. At cellular cereblon (CRBN), this compound gave a pIC50 of over 7.00.

`O=C1CCC(N2C(=O)C3CCCc4c(C5CCN(CCCC(=O)N6CC(c7nc8ccc(-c9n[nH]c%10cc%11c(cc9%10)CN(Cc9ccccc9)C(=O)N%11)cc8o7)C6)CC5)ccc2c43)C(=O)N1` (stereo not drawn): at CRBN-DDB1 (class symbols), the pKd was 5.00 to 6.00. For the same compound, the DC50 in the assay with ERK1/2 fell in the range of 100 to 1000 nM.

Regarding `CC(c1cccc2c(C#CC3CCN(C(=O)CN4CCC(c5ccc6c7c(cccc57)N(C5CCC(=O)NC5=O)C6=O)CC4)CC3)cccc12)N1CCC(C(=O)NCc2cccc(F)c2)CC1` (stereo not drawn) [Compound 105, 1-[1-[5-[2-[1-[2-[4-[1-(2,6-dioxo-3-piperidyl)-2-oxo-benzo[cd]indol-5-yl]-1-piperidyl]acetyl]-4-piperidyl]ethynyl]-1-naphthyl]ethyl]-N-[(3-fluorophenyl)methyl]piperidine-4-carboxamide], on NSP3 UBL2_PLpro-HA-HiBiT, the DC50 is over 10000 nM and the Emax was 61 to 95%.

Compound `N#Cc1ccc2c3c(cccc13)C(=O)N2C1CCC(=O)NC1=O` (stereo not drawn) showed a pIC50 at cellular cereblon (CRBN) of over 7.00.

Take `O=C1CCC(N2C(=O)c3cccc4c(C5CCN(CC(=O)N6CC(c7nc8ccc(-c9n[nH]c%10cc%11c(cc9%10)CN(Cc9ccccc9)C(=O)N%11)cc8o7)C6)CC5)ccc2c34)C(=O)N1` (stereo not drawn): the pKd at CRBN-DDB1 (class symbols) was 5.00 to 6.00. The DC50 with ERK1/2 fell in the range of 100 to 1000 nM.

Consider `O=C1CCC(N2C(=O)c3cccc4c(C5CCNCC5)ccc2c34)C(=O)N1` (stereo not drawn), for which, on cellular cereblon (CRBN), the pIC50 is over 7.00.

Consider `CNC(=O)N1CCc2c(c(N3CCCc4cc(-c5cnn(C)c5)c(C(F)F)cc43)nn2C2CCN(C(=O)CCCCCCCCN3CCC(c4ccc5c6c(cccc46)C(=O)N5C4CCC(=O)NC4=O)CC3)CC2)C1` (stereo not drawn), for which, at CBP/P300, the DC50 was under 10 nM and the Emax is under 30%. Besides, the pKd on CRBN-DDB1 (setting [1]) was over 8.00.

For the compound `CC(c1ccc(C#CC2CCN(C(=O)CN3CCC(c4ccc5c6c(cccc46)C(=O)N5C4CCC(=O)NC4=O)CC3)CC2)c2ccccc12)N1CCC(C(=O)NCc2cccc(F)c2)CC1` (stereo not drawn) [Compound 102, 1-[1-[4-[2-[1-[2-[4-[1-(2,6-dioxo-3-piperidyl)-2-oxo-benzo[cd]indol-6-yl]-1-piperidyl]acetyl]-4-piperidyl]ethynyl]-1-naphthyl]ethyl]-N-[(3-fluorophenyl)methyl]piperidine-4-carboxamide], at NSP3 UBL2_PLpro-HA-HiBiT, the DC50 is over 10000 nM and the Emax was 61 to 95%.

Take `CC(c1ccc(C#CC2CCN(C(=O)CN3CCC(c4ccc5c6c(cccc46)N(C4CCC(=O)NC4=O)C5=O)CC3)CC2)c2ccccc12)N1CCC(C(=O)NCc2cccc(F)c2)CC1` (stereo not drawn) [Compound 103, 1-[1-[4-[2-[1-[2-[4-[1-(2,6-dioxo-3-piperidyl)-2-oxo-benzo[cd]indol-5-yl]-1-piperidyl]acetyl]-4-piperidyl]ethynyl]-1-naphthyl]ethyl]-N-[(3-fluorophenyl)methyl]piperidine-4-carboxamide]: on NSP3 UBL2_PLpro-HA-HiBiT, the DC50 is over 10000 nM and the Emax lay in the range of 61 to 95%.

Turning to `CC(c1cccc2c(C#CC3CCN(C(=O)CN4CCC(c5ccc6c7c(cccc57)C(=O)N6C5CCC(=O)NC5=O)CC4)CC3)cccc12)N1CCC(C(=O)NCc2cccc(F)c2)CC1` (stereo not drawn) [Compound 104, 1-[1-[5-[2-[1-[2-[4-[1-(2,6-dioxo-3-piperidyl)-2-oxo-benzo[cd]indol-6-yl]-1-piperidyl]acetyl]-4-piperidyl]ethynyl]-1-naphthyl]ethyl]-N-[(3-fluorophenyl)methyl]piperidine-4-carboxamide], on NSP3 UBL2_PLpro-HA-HiBiT, the DC50 was over 10000 nM and the Emax lay in the range of 61 to 95%.

A word on the Emax: it is the greatest response seen or fitted, relative to the assay's reference. Broadly, the pIC50 is −log10 of the IC50, conventionally taken in molar units. Low values mean a large IC50, high ones a small IC50.

Source of the values: patent US20230372496A1, “TRICYCLIC HETEROBIFUNCTIONAL COMPOUNDS FOR DEGRADATION OF TARGETED PROTEINS” (C4 Therapeutics, Inc., priority 2020, published 2023).
